Read-outs that look alike come from different tables or passages of the source.
What was measured:
HL60 cells [1] = assay: Growth of HL60 cells (IC50); format: cell-based, human
Description: (§1) The analogs were then tested and evaluated on the ability to affect differentiation and growth of HL60 cells.

HL60 cells [2] = assay: Differentiation of HL60 cells (Dif50); format: cell-based, human; conditions: differentiation, no unit in head or cell (other cells of the column print uM), read-out: HL-60, Dif50
Text: The tested compounds and their respective results are produced in Table 1. Those skilled in the art will appreciate that combining the securinine and/or norsecurinine analogs with other differentiation inducing agents, such as all-trans retinoic acid, cytarabine and/or an anthracycline, would be of further benefit. Those skilled in the art will appreciate that inducing differentiation may further reduce oxidative damage due to lower presence of radical inducing enzymes (see, e.g., Yamada et al. J Biol Chem 259(5)3021-3025 (1984) and Weil et al., PNAS 84:2057-2061 (1987)).
as §1

[3] = Homo sapiens, HL-60, read-out: HL-60, IC50, HL-60 cells, growth, no unit in head or cell (other cells of the column print uM)
[4] = Homo sapiens, HL-60, HL-60 cells
[5] = Homo sapiens, HL-60, HL-60 cells, growth, no unit in head or cell (other cells of the column print uM), read-out: HL-60, IC50
[6] = Homo sapiens, HL-60, read-out: HL-60, IC50, HL-60 cells, growth
[7] = read-out: HL-60, IC50, HL-60 cells, growth, no unit in head or cell (other cells of the column print uM)

O=C1C=C2C(C#Cc3cc4ccccc4c4ccccc34)=C[C@@H]3C[C@@]2(O1)[C@H]1CCCCN31 [INVS-MG-158-VI]
IC50 (HL60 cells [1]; [3]): 0.156 to 0.31 µM

O=C1C=C2C=CC3CC2(O1)C1=C(Br)CCCN13 (stereo not shown) [INV-SZ-118-2]
IC50 (HL60 cells [1]; [3]): 0.31 to 0.62 µM

CC(C)CS[C@@H]1CC2=CC(=O)O[C@@]23C[C@@H]1N1CCCC[C@@H]13 (stereo in doubt) [INVS-MG-57A]
EC50 (HL60 cells [2]; [4]): 20 to 30 µM

COC(OC)[C@H]1CC[C@H]2N1[C@@H]1C=C(C#Cc3ccc(N)cc3)C3=CC(=O)O[C@@]32C1 [INVS-MG-219A]
IC50 (HL60 cells [1]; [5]): 0.625 to 1.25 µM

C#CC1=C[C@@H]2C[C@@]3(OC(=O)C=C13)[C@H]1CCCCN21 [INVS-MG-207-II]
EC50 (HL60 cells [2]; [4]): > 0.07 µM

O=C1C=C2C(C#Cc3cccnc3)=C[C@@H]3C[C@@]2(O1)[C@H]1CCCCN31 [INVS-MG-144B]
IC50 (HL60 cells [1]; [5]): 0.31 to 0.625 µM

O=C1C=C2C[C@H](SCC(F)(F)F)[C@@H]3C[C@@]2(O1)[C@H]1CCCCN31 [INVS-MG-5B]
EC50 (HL60 cells [2]; [4]): > 30 µM

COC(OC)[C@H]1CC[C@H]2N1[C@@H]1C=CC3=CC(=O)O[C@@]32C1 [INVS-MG-99-IVD]
IC50 (HL60 cells [1]; [6]): < 5 µM

COc1ccc(C#CC2=C[C@@H]3C[C@@]4(OC(=O)C=C24)[C@H]2CC[C@H](C(OC)OC)N32)cc1OC [INVS-MG-223B]
IC50 (HL60 cells [1]; [5]): 0.156 to 0.31 µM

O=C1C=C2CC(S(=O)(=O)c3ccccc3)[C@@H]3C[C@@]2(O1)[C@H]1CCCCN31 (stereo partly shown) [INVS-MG-184B]
EC50 (HL60 cells [2]; [4]): 5 to 7.5 µM

O=C1C=C2CC(N3CCN(c4ccc(Br)cc4)CC3)[C@@H]3C[C@@]2(O1)[C@H]1CCCCN31 (stereo partly shown) [Sec-11]
EC50 (HL60 cells [2]; [4]): 15 to 20 µM

COc1ccc2cc(C#CC3=C[C@@H]4C[C@@]5(OC(=O)C=C35)[C@H]3CCCCN43)ccc2c1 [INVS-MG-157-III]
IC50 (HL60 cells [1]; [5]): 0.07 to 0.156 µM

O=C1C=C2C(C#CCSc3ccccc3)=C[C@@H]3C[C@@]2(O1)[C@H]1CCCCN31 [INVS-MG-147B]
IC50 (HL60 cells [1]; [5]): 0.625 to 1.25 µM

CCCN(CC#CC1=C[C@@H]2C[C@@]3(OC(=O)C=C13)[C@H]1CCCCN21)CCC [INVS-MG-152-III]
IC50 (HL60 cells [1]; HL-60 cells, growth, no unit in head or cell (other cells of the column print uM), read-out: HL-60, IC50): < 0.03 µM

O=CC1CCC2N1C1C=CC3=CC(=O)OC32C1 (stereo not shown) [INV-SZ-132-1]
IC50 (HL60 cells [1]; [5]): 1.25 to 2.5 µM

O=C1C=C2C(C#Cc3cc4ccccc4c4ccccc34)=C[C@@H]3C[C@@]2(O1)[C@H]1CCCCN31 [INVS-MG-158-V]
IC50 (HL60 cells [1]; [7]): < 5 µM

COC(OC)C1CCC2N1C1C=C(C#CCNC(=O)CCl)C3=CC(=O)OC32C1 (stereo not shown) [INV-SZ-141-1]
IC50 (HL60 cells [1]; [5]): 1.25 to 2.5 µM

OC1C=C2CC(SCc3ccccc3)[C@@H]3C[C@@]2(O1)[C@H]1CCCCN31 (stereo partly shown) [Sec-2]
EC50 (HL60 cells [2]; [4]): > 30 µM

COC(OC)[C@H]1CC[C@H]2N1[C@@H]1C=C(I)C3=CC(=O)O[C@@]32C1 [INVS-MG-99B = 52B]
IC50 (HL60 cells [1]; [3]): 0.156 to 0.31 µM

O=C1C=C2C(C#Cc3cccc[n+]3[O-])=CC3CC2(O1)C1CCCCN31 (stereo not shown) [INV-SZ-116-1]
IC50 (HL60 cells [1]; [5]): 2.5 to 5 µM

CCCCN(CC#CC1=C[C@@H]2C[C@@]3(OC(=O)C=C13)[C@H]1CCCCN21)CCCC [INVS-MG-179B]
IC50 (HL60 cells [1]; [5]): 0.156 to 0.31 µM

O=C1C=C2C(C#CCc3ccccc3)=C[C@@H]3C[C@@]2(O1)[C@H]1CCCCN31 [INVS-MG-108-IIB]
IC50 (HL60 cells [1]; [5]): 0.31 to 0.625 µM

COC(OC)[C@H]1CC[C@H]2N1[C@@H]1C=C(C#Cc3ccc(CO)cc3)C3=CC(=O)O[C@@]32C1 [INVS-MG-224A]
IC50 (HL60 cells [1]; [5]): 0.156 to 0.31 µM

COc1ccc(SC2CC3=CC(O)O[C@@]34C[C@@H]2N2CCCC[C@@H]24)cc1 (stereo partly shown) [Sec-9]
EC50 (HL60 cells [2]; [4]): 20 to 30 µM

O=C1C=C2CC(SCCSC3CC4=CC(=O)O[C@]45C[C@H]3N3CCCC[C@H]35)[C@@H]3C[C@@]2(O1)[C@H]1CCCCN31 (stereo partly shown) [INVS-MG-7C]
EC50 (HL60 cells [2]; [4]): 10 to 15 µM

O=C1C=C2C(C#Cc3ccc([N+](=O)[O-])cc3)=C[C@@H]3C[C@@]2(O1)[C@H]1CCCCN31 [INVS-MG-176B]
IC50 (HL60 cells [1]; [5]): 0.31 to 0.625 µM

O=C1C=C2[C@@H]3C=CC[C@@]2(O1)[C@H]1CCCCN1O3 [INVS-MG-74A]
EC50 (HL60 cells [2]; [4]): > 30 µM

O=C1C=C2C(I)=C[C@@H]3C[C@@]2(O1)[C@H]1CCCCN31 [INVS-MG-84]
IC50 (HL60 cells [1]; [7]): > 2.5 µM

COC(OC)[C@H]1CC[C@H]2N1[C@@H]1C=CC3=CC(=O)O[C@@]32C1 [INVS-MG-99-IVD-I]
IC50 (HL60 cells [1]; read-out: HL-60, IC50, HL-60 cells, growth): > 5 µM

COC(OC)[C@@H]1CC[C@H]2N1[C@@H]1C=C(C#Cc3cc4ccccc4c4ccccc34)C3=CC(=O)O[C@@]32C1 [INVS-MG-220C]
IC50 (HL60 cells [1]; [6]): > 5 µM

[N-]=[N+]=Nc1ccc(C#CC2=C[C@@H]3C[C@@]4(OC(=O)C=C24)[C@H]2CCCCN32)cc1 [INVS-MG-193-III]
IC50 (HL60 cells [1]; [5]): 0.156 to 0.31 µM

O=C1C=C2C=CC3CC2(O1)C1CCCCN1O3 (stereo not shown) [INV-SZ-125-2]
IC50 (HL60 cells [1]; [5]): < 5 µM

O=C1C=C2C=C[C@@H]3C[C@@]2(O1)[C@H]1CCCCN31 [INVS-MG-94-aq]
EC50 (HL60 cells [2]; HL-60 cells): > 30 µM

O=C1C=C2C(C#CCO)=CC3CC2(O1)C1CCCCN31 (stereo not shown) [INV-SZ-133-1]
IC50 (HL60 cells [1]; [5]): 1.25 to 2.5 µM
